Test results taken from US20240200147A1, “Non-Small Cell Lung Cancer Diagnosis and Treatment” (West Virginia University Board of Governors on Behalf of …, priority 2022, published 2024).
Where two headings read alike, the source gives them in different places. Non-standard residues stand in square brackets, D forms with d. Residues, ends and D or L forms follow the SMILES beside them.

How the values were obtained:
[1] = system: EGFR and HER2 transactivation; settings: cited from earlier work
CCLE NSCLC cell lines = assay: Average IC50 and EC50 of selected compounds in PRISM drug screening data; assay type: cell-based, human; settings: for EC50 / IC50: PRISM dataset, NSCLC cell lines, outliers (drug concentration value > 10) removed
Description: The drug sensitivity data of human NSCLC cell lines were taken from multiple resources. The secondary PRISM repurposing dataset was obtained from the DepMap release 19Q4. […] A total of 64 NSCLC cell lines from GDSC1 and 58 NSCLC cell lines from GDSC2 were included in this study. Details of the categorization of drug sensitivity in each cell line were included in our previous publications.

[2] = system: late-stage, metastatic, Kras-mutant NSCLC; settings: compared with various combination therapies, chemo-, and immune therapy; cited from earlier work
non-progressing NSCLC = settings: maintenance therapy, linsitinib added to erlotinib; cited from earlier work
NSCLC = settings: linsitinib added to erlotinib, compared with erlotinib alone; cited from earlier work
trophoblast = settings: fetal growth restriction; cited from earlier work
[3] = system: oxidative phosphorylation; settings: mitochondrial protonophore; cited from earlier work
[4] = system: human NSCLC A549 and NCI-H358 cells; settings: cited from earlier work
pERK = settings: patients with solid tumors; phase I; cited from earlier work
[5] = system: phosphorylated extracellular signal-regulated kinase (pERK); settings: patients with locally advanced/metastatic melanoma; clinically relevant doses; phase I; cited from earlier work
NSCLC cells [6] = settings: cited from earlier work
NSCLC cells [7] = settings: cited from earlier work; remark: listed apart in the source
refractory NSCLC = refractory NSCLC patients; open-label phase II; cited from earlier work
NSCLC H460 cells = settings: in-vitro and in-vivo; cited from earlier work
[8] = system: Ki-ras-transformed rat fibroblasts; settings: concurrent suppression of ERK and mTOR-p70(S6K) pathways; cited from earlier work
[9] = system: human breast cancer MDA-MB-231 and HBC-4 cells; settings: cited from earlier work
[10] = system: endogenous promoters containing activator protein 1 (AP-1) response elements; settings: genes lacking an AP-1 response element not affected; cited from earlier work
U87MG glioma cells = settings: cited from earlier work
glioma tumor = settings: mouse xenograft model; cited from earlier work
U2OS and 143B lines = settings: cited from earlier work
[11] = induced by addition of ET-1 to NSCLC cells
[12] = BMS-754807 alone, A549 and NCI-H358

**Q.** For `CNC(=O)[C@H](Cc1c[nH]c2ccccc12)NC(=O)[C@@H](CC(=O)NO)CC(C)C` [GM6001], which “increase in EGFR and HER2 transactivation” value (from here on “increase”) [1, 11] is on record?
**A.** Its value is “inhibited”.

**Q.** With `O=C(NOCC1CC1)c1ccc(F)c(F)c1Nc1ccc(I)cc1Cl` [PD-184352] as the molecule, how does the EC50 (CCLE NSCLC cell lines) read?
**A.** Its EC50 is 2190 nM.

**Q.** And the IC50 (CCLE NSCLC cell lines)?
**A.** The IC50 was 3990 nM.

**Q.** Which EC50 (CCLE NSCLC cell lines; Homo sapiens) does the source give for `Cc1nc(Nc2ncc(C(=O)Nc3c(C)cccc3Cl)s2)cc(N2CCN(CCO)CC2)n1` [dasatinib] here?
**A.** Its EC50 is 504 nM.

**Q.** What about the IC50 (CCLE NSCLC cell lines; Homo sapiens) of the same molecule?
**A.** The IC50 was 555 nM.

**Q.** What does the source list for `COc1cccc(-c2cc(=O)c3ccccc3o2)c1N` [PD-98059]?
**A.** EC50 (CCLE NSCLC cell lines): 607 nM; IC50 (CCLE NSCLC cell lines): 4980 nM

**Q.** For `Cn1cnc2c(F)c(Nc3ccc(Br)cc3Cl)c(C(=O)NOCCO)cc21` [selumetinib], which EC50 (CCLE NSCLC cell lines; Homo sapiens) is on record?
**A.** Its EC50 is 647 nM.

**Q.** What about the IC50 (CCLE NSCLC cell lines; Homo sapiens) of the same molecule?
**A.** Its IC50 is 2210 nM.

**Q.** And the “safety profile in treating NSCLC” value [2]?
**A.** Its value is “better safety profile”.

**Q.** For `CS(=O)(=O)CCNCc1ccc(-c2ccc3ncnc(Nc4ccc(OCc5cccc(F)c5)c(Cl)c4)c3c2)o1` [Lapatinib], which “increase” value [1] is on record?
**A.** Its value is “inhibited”.

**Q.** What does the source list for `C[C@]1(O)C[C@@H](c2nc(-c3ccc4ccc(-c5ccccc5)nc4c3)c3c(N)nccn32)C1` [linsitinib]?
**A.** EC50 (CCLE NSCLC cell lines; Homo sapiens): 2090 nM; IC50 (CCLE NSCLC cell lines; Homo sapiens): 4250 nM; PFS or OS (non-progressing NSCLC): did not improve; patient outcomes (NSCLC): worse patient outcomes

**Q.** With `CC(C)(C)n1nc(-c2ccc(Cl)cc2)c2c(N)ncnc21` [PP-2] as the molecule, how does the EC50 (CCLE NSCLC cell lines) read?
**A.** Its EC50 is 2480 nM.

**Q.** And the IC50 (CCLE NSCLC cell lines)?
**A.** The IC50 was 3190 nM.

**Q.** And the “increase” value [1, 11]?
**A.** Its value is “inhibited”.

**Q.** Which results are given for `COc1cc2ncnc(Nc3ccc(Cl)cc3F)c2cc1OC` [ZM-306416]?
**A.** EC50 (CCLE NSCLC cell lines; Homo sapiens): 1080 nM; IC50 (CCLE NSCLC cell lines; Homo sapiens): 2630 nM; trophoblast proliferation and migration (trophoblast): impaired

**Q.** For `Cc1cc(I)ccc1Nc1c(C(=O)NOCC2CC2)cc(F)c(F)c1F` [PD-198306], which EC50 (CCLE NSCLC cell lines; Homo sapiens) is on record?
**A.** The EC50 was 2030 nM.

**Q.** And the IC50 (CCLE NSCLC cell lines; Homo sapiens)?
**A.** The IC50 was 3160 nM.

**Q.** And the oxidative phosphorylation [3]?
**A.** The oxidative phosphorylation was “uncouples”.

**Q.** With `C[C@@]1(C(=O)Nc2ccc(F)nc2)CCCN1c1nc(Nc2cc(C3CC3)n[nH]2)c2cccn2n1` [BMS-754807] as the molecule, how does the EC50 (CCLE NSCLC cell lines; Homo sapiens) read?
**A.** Its EC50 is 1020 nM.

**Q.** And the IC50 (CCLE NSCLC cell lines; Homo sapiens)?
**A.** The IC50 was 1740 nM.

**Q.** And the “effect on cisplatin and carboplatin” value ([4]; A549 cells)?
**A.** Its value is “enhanced”.

**Q.** And the apoptosis [4, 12]?
**A.** Its apoptosis is “enhanced”.

**Q.** And the “cell survival and wound closure” value [4, 12]?
**A.** Its value is “reduced”.

**Q.** For `O=C(NC[C@H](O)CO)c1ccncc1Nc1ccc(I)cc1F` [AS-703026, pimasertib], which EC50 (CCLE NSCLC cell lines; Homo sapiens) is on record?
**A.** Its EC50 is 940 nM.

**Q.** What about the IC50 (CCLE NSCLC cell lines; Homo sapiens) of the same molecule?
**A.** The IC50 was 1510 nM.

**Q.** And the pERK (pERK)?
**A.** Its pERK is “inhibited”.

**Q.** What about the “pERK in peripheral blood mononuclear cells” value [5] of the same molecule?
**A.** The value was “inhibition”.

**Q.** Which EC50 (CCLE NSCLC cell lines) does the source give for `Cc1ccc(-c2nn(C(C)(C)C)c3ncnc(N)c23)cc1` [PP-1] here?
**A.** The EC50 was 2080 nM.

**Q.** And the IC50 (CCLE NSCLC cell lines)?
**A.** Its IC50 is 3410 nM.

**Q.** And the “phosphorylation induced by morphine” value (NSCLC cells [6])?
**A.** Its value is “decreased”.

**Q.** And the “antiapoptotic impact of morphine” value (NSCLC cells [7])?
**A.** The value was “reversed”.

**Q.** Which EC50 (CCLE NSCLC cell lines; Homo sapiens) does the source give for `CN1CCN(CCOc2cc(OC3CCOCC3)c3c(Nc4c(Cl)ccc5c4OCO5)ncnc3c2)CC1` [saracatinib] here?
**A.** The EC50 was 983 nM.

**Q.** What about the IC50 (CCLE NSCLC cell lines; Homo sapiens) of the same molecule?
**A.** Its IC50 is 1730 nM.

**Q.** For `N#CC(=C(N)Sc1ccc(N)cc1)c1ccccc1C(F)(F)F` [MEK1-2-inhibitor], which EC50 (CCLE NSCLC cell lines) is on record?
**A.** The EC50 was 2200 nM.

**Q.** What about the IC50 (CCLE NSCLC cell lines) of the same molecule?
**A.** The IC50 was 4200 nM.

**Q.** For `COc1nc(C)cnc1NS(=O)(=O)c1cccnc1-c1ccc(-c2nnco2)cc1` [ZD4054], which “increase” value [1, 11] is on record?
**A.** Its value is “inhibited”.

**Q.** For `COc1cc2c(cc1OC)[C@@H]1C(=O)c3ccc4c(c3O[C@@H]1CO2)C=CC(C)(C)O4` [deguelin], which “antiapoptotic impact of morphine” value (NSCLC cells [7]) is on record?
**A.** Its value is “reversed”.

**Q.** For `O=C(NOC[C@H](O)CO)c1ccc(F)c(F)c1Nc1ccc(I)cc1F` [PD-0325901], which EC50 (CCLE NSCLC cell lines) is on record?
**A.** Its EC50 is 386 nM.

**Q.** And the IC50 (CCLE NSCLC cell lines)?
**A.** The IC50 was 748 nM.

**Q.** What about the “average IC50 and EC50 values (in words)” value (CCLE NSCLC cell lines; PRISM drug screening data) of the same molecule?
**A.** Its value is “small”.

**Q.** What about the primary endpoint (refractory NSCLC) of the same molecule?
**A.** The primary endpoint was “did not meet”.

**Q.** With `O=S(=O)(O)c1cc(O)c(O)c(S(=O)(=O)O)c1` [Tiron] as the molecule, how does the “increase” value [1, 11] read?
**A.** Its value is “inhibited”.

**Q.** For `CN1CC[C@]23c4c5ccc(O)c4O[C@H]2[C@@H](O)C=C[C@H]3[C@H]1C5` [Morphine], which “growth of NSCLC H460 cells” value (NSCLC H460 cells) is on record?
**A.** Its value is “promoted”.

**Q.** What does the source list for `N#CC(=C(/N)Sc1ccccc1N)/C(C#N)=C(\N)Sc1ccccc1N` [U-0126]?
**A.** EC50 (CCLE NSCLC cell lines; Homo sapiens): 1870 nM; IC50 (CCLE NSCLC cell lines; Homo sapiens): 4530 nM; anchorage-independent growth [8]: inhibits; sensitivity to anoikis [9]: sensitizes; endogenous promoters containing AP-1 response elements [10]: inhibits

**Q.** For `CC(C)C[C@@H]1NC(=O)[C@@H](C(C)C)NC(=O)[C@@H]2CCCN2C(=O)[C@@H](CC(=O)O)NC(=O)[C@@H](Cc2c[nH]c3ccccc23)NC1=O` [BQ-123] (cyclo(L[dW][dD]P[dV])), which “increase” value [1, 11] is on record?
**A.** The value was “inhibited”.

**Q.** With `COc1cc(Nc2c(C#N)cnc3cc(OCCCN4CCN(C)CC4)c(OC)cc23)c(Cl)cc1Cl` [bosutinib] as the molecule, how does the EC50 (CCLE NSCLC cell lines; Homo sapiens) read?
**A.** Its EC50 is 1590 nM.

**Q.** And the IC50 (CCLE NSCLC cell lines; Homo sapiens)?
**A.** The IC50 was 3160 nM.

**Q.** With `C[N@+]1(CC2CC2)CC[C@]23c4c5ccc(O)c4O[C@H]2C(=O)CC[C@@]3(O)[C@H]1C5` [methylnaltrexone] as the molecule, how does the “phosphorylation induced by morphine” value (NSCLC cells [6]) read?
**A.** The value was “decreased”.

**Q.** What about the “antiapoptotic impact of morphine” value (NSCLC cells [7]) of the same molecule?
**A.** Its value is “reversed”.

**Q.** With `COc1ccc(Cl)cc1NC(=O)Nc1cc(C)nc2ccccc12` [PQ-401] as the molecule, how does the EC50 (CCLE NSCLC cell lines; Homo sapiens) read?
**A.** Its EC50 is 2200 nM.

**Q.** What about the IC50 (CCLE NSCLC cell lines; Homo sapiens) of the same molecule?
**A.** Its IC50 is 5340 nM.

**Q.** And the apoptosis (U87MG glioma cells)?
**A.** Its apoptosis is “induces”.

**Q.** What about the “in-vitro viability, proliferation, and mobility” value (U87MG glioma cells) of the same molecule?
**A.** The value was “inhibits”.

**Q.** And the “in-vivo glioma tumor growth” value (glioma tumor)?
**A.** The value was “inhibits”.

**Q.** And the “osteosarcoma cell proliferation, migration, and colony formation” value (U2OS and 143B lines)?
**A.** The value was “inhibits”.

**Q.** Which EC50 (CCLE NSCLC cell lines; Homo sapiens) does the source give for `O=C1Nc2ccccc2/C1=C1/Nc2ccccc2C1=O` [indirubin] here?
**A.** The EC50 was 630 nM.

**Q.** And the IC50 (CCLE NSCLC cell lines; Homo sapiens)?
**A.** The IC50 was 3550 nM.
